28 compounds from US11691972B2, “Compounds for targeted degradation of BRD9” (C4 Therapeutics, Inc., priority 2020, dated 2023) can be followed below.

This assay has as its target T1, BRD9 (Homo sapiens, UniProt Q9H8M2).
T1 sequence (Q9H8M2 1-597): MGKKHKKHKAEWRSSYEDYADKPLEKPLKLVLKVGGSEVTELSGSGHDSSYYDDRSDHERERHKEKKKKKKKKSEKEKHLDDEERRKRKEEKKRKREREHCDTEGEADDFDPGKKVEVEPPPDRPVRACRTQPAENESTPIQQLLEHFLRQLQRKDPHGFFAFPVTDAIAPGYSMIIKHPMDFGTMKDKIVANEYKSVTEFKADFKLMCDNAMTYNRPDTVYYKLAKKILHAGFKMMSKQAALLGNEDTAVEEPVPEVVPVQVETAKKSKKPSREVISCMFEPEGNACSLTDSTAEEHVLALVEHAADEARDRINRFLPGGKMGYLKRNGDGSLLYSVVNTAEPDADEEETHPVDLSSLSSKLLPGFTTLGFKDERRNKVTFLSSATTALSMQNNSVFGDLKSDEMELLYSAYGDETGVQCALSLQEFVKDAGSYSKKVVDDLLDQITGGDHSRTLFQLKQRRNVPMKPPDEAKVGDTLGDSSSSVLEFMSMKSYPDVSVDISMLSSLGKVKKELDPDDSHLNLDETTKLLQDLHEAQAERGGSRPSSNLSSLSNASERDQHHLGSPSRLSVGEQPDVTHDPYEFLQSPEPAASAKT
The assay can be described thus: HiBiT BRD9 degradation assay in 293T.166 (BRD9-HiBiT) cells. It is filed as cell-based. More on the design: endogenously expressing BRD9 with HiBiT fusion tag via CRISPR; host or cells: 293T.166 (BRD9-HiBiT), also expressing LgBiT ectopically. The conditions noted are these: 293T.166 cells, 2.0 hours, class symbols, read-out: HiBiT-Degradation 293T.166 BRD9 2.0 hours (DC50). The procedure: Selected compounds were tested in a BRD9 degradation assay using the HiBit Method.
Dulbecco's modified Eagle medium (DMEM) without phenol red and fetal bovine serum (FBS) were purchased from Gibco (Grand Island, N.Y., USA). Nano-Glo® HiBiT Lytic Assay System was purchased from Promega (Madison, Wis., USA). 293T.166 (BRD9-HiBiT) cell line, endogenously expressing BRD9 with HiBiT fusion tag via CRISPR and ectopically expressing LgBiT tag, was purchased from Promega (Madison, Wis., USA). 293T.167 (BRD7-HiBiT) cell line, endogenously expressing BRD7 with HiBiT fusion tag via CRISPR and ectopically expressing LgBiT tag, was purchased from Promega (Madison, Wis., USA). 293T.92 (BRD4-HiBiT) cell line, endogenously expressing BRD4 with HiBiT fusion tag via CRISPR and ectopically expressing LgBiT tag, was generated in-house. Cell culture flasks and 384-well microplates were acquired from VWR (Radnor, Pa., USA).
BRD9 degradation was determined based on quantification of luminescent signal using Nano-Glo® HiBiT Lytic Assay kit. Test compounds were added to the 384-well plate from a top concentration of 10 μM with 11 points, half log titration in duplicates. 293T.166 cells were added into 384-well plates at a cell density of 10,000 cells per well. The plates were kept at 37° C. with 5% CO2 for 2 hours. BRD7 and BRD4 degradation was similarly determined with 293T.167 cells and 293T.92 cells, respectively. The cells treated in the absence of the test compound were the negative control and the cells without Nano-Glo® HiBiT Lytic reagent were the positive control. After 2-hour incubation, Nano-Glo® HiBiT Lytic Assay reagents were added to the cells. Luminescence was acquired on EnVision™ Multilabel Reader (PerkinElmer, Santa Clara, Calif., USA).

SMILES strings stand for the structures. Read-outs that look alike come from different tables or passages of the source. Some results are limits rather than exact numbers.

In the case of `COc1cc(-c2cn(C)c(=O)c3cnccc23)cc(Cl)c1CN1CCC(N2CCN(c3ccc(N(C)C4CCC(=O)NC4=O)cc3F)CC2)C(F)(F)C1` (stereo not shown) [Compound 254, 3-[4-[4-[1-[[2-chloro-6-methoxy-4-(2-methyl-1-oxo-2,7-naphthyridin-4-yl)phenyl]methyl]-3,3-difluoro-4-piperidyl]piperazin-1-yl]-3-fluoro-N-methyl-anilino]piperidine-2,6-dione], under “Table 2”, the 50% degradation concentration (DC50) is below 100 nM.
On to `COc1cc(-c2cn(C)c(=O)c3[nH]ncc23)cc(Cl)c1CN1CCC(C2CCN(c3ccc(NC4CCC(=O)NC4=O)cc3Cl)CC2)CC1` (stereo not shown) [Compound 75], for which the DC50 (Table 1) is below 100 nM.
As for `COc1cc(-c2cn(C)c(=O)c(C)c2C)cc(Cl)c1C(=O)N1CCC(N2CCC(c3ccc(NC4CCC(=O)NC4=O)cc3)C(F)(F)C2)CC1` (stereo not shown) [Compound 229], the half-maximal degradation concentration (DC50) (Table 1) was below 100 nM.
Consider `COc1cc(-c2cn(C)c(=O)c(C)c2C)cc(Cl)c1CN1CCC(C2CCN(c3ccc(NC4CCC(=O)NC4=O)cc3F)CC2)C(F)(F)C1` (single isomer, unassigned) [Compound 258], for which, under “Table 2”, the DC50 lay within 100 to 500 nM.
Take `COc1cc(-c2cn(C)c(=O)c3[nH]ncc23)cc(Cl)c1CN1CCC(C2CCN(c3ccc(NC4CCC(=O)NC4=O)cc3F)CC2)CC1` (stereo not shown) [Compound 73, 3-[4-[4-[1-[[2-chloro-6-methoxy-4-(6-methyl-7-oxo-1H-pyrazolo[3,4-c]pyridin-4-yl)phenyl]methyl]-4-piperidyl]-1-piperidyl]-3-fluoro-anilino]piperidine-2,6-dione]: the half-maximal degradation concentration (DC50) (Table 1) is below 100 nM.
As to `COc1cc(-c2cn(C)c(=O)c3cnccc23)cc(Cl)c1CN1CCC(C2CCN(c3ccc(NC4CCC(=O)NC4=O)cc3C(F)(F)F)CC2)CC1` (stereo not shown) [Compound 83, 3-[4-[4-[1-[[2-chloro-6-methoxy-4-(2-methyl-1-oxo-2,7-naphthyridin-4-yl)phenyl]methyl]-4-piperidyl]-1-piperidyl]-3-(trifluoromethyl)anilino]piperidine-2,6-dione], the 50% degradation concentration (DC50) (Table 1) is below 100 nM.
Consider `COc1cc(-c2cn(C)c(=O)c3cnccc23)cc(Cl)c1CN1CCC(CCC2CCN(c3ccc(NC4CCC(=O)NC4=O)cc3C(F)(F)F)CC2)CC1` (stereo not shown) [Compound 149], for which the DC50 (Table 1) was below 100 nM.
Turning to `COc1cc(-c2cn(C)c(=O)c3cnccc23)cc(Cl)c1CN1CCC(CC(=O)N2CCC(c3ccc(NC4CCC(=O)NC4=O)cc3)CC2)CC1` (stereo not shown) [Compound 44], the DC50 (Table 1) is below 100 nM.
For the compound `CCOc1cc(-c2cn(C)c(=O)c3[nH]ncc23)c(OC)cc1CN1CCN(C(=O)CN2CCC(c3ccc(NC4CCC(=O)NC4=O)cc3)CC2)CC1` (stereo not shown) [Compound 22], where the note is “Table 1”, the 50% degradation concentration (DC50) is below 100 nM.
Turning to `COc1cc(-c2cn(C)c(=O)c(C)c2C)cc(OC)c1CN1C2CCC1CN(C(=O)CC1CCN(c3ccc(NC4CCC(=O)NC4=O)cc3C(F)(F)F)CC1)C2` (stereo not shown) [Compound 63, 3-[4-[4-[2-[8-[[2,6-dimethoxy-4-(1,4,5-trimethyl-6-oxo-3-pyridyl)phenyl]methyl]-3,8-diazabicyclo[3.2.1]octan-3-yl]-2-oxo-ethyl]-1-piperidyl]-3-(trifluoromethyl)anilino]piperidine-2,6-dione], the DC50 (Table 1) was below 100 nM.
Take `COc1cc(-c2cn(C)c(=O)c(C)c2C)cc(Cl)c1CN1CCC(C2CCN(c3ccc(NC4CCC(=O)NC4=O)cc3F)CC2)C(F)(F)C1` (stereo not shown) [Compound 197, 3-[4-[4-[1-[[2-chloro-6-methoxy-4-(1,4,5-trimethyl-6-oxo-3-pyridyl)phenyl]methyl]-3,3-difluoro-4-piperidyl]-1-piperidyl]-3-fluoro-anilino]piperidine-2,6-dione]: for the setting “Table 1”, the DC50 was below 100 nM.
Regarding `COc1cc(-c2cn(C)c(=O)c(C)c2C)cc(F)c1CN1CCC(N2CCN(c3ccc(NC4CCC(=O)NC4=O)cc3F)CC2)C(F)(F)C1` (stereo not shown) [Compound 191], the DC50 (Table 1) was below 100 nM.
With `COc1cc(-c2cn(C)c(=O)c3cnccc23)cc(Cl)c1CN1CCC(N2CCN(c3ccc(NC4CCC(=O)NC4=O)cc3F)CC2)C(F)(F)C1` (stereo not shown) [Compound 177, 3-[4-[4-[1-[[2-chloro-6-methoxy-4-(2-methyl-1-oxo-2,7-naphthyridin-4-yl)phenyl]methyl]-3,3-difluoro-4-piperidyl]piperazin-1-yl]-3-fluoro-anilino]piperidine-2,6-dione], the DC50 (Table 1) was below 100 nM.
With `COc1cc(-c2cn(C)c(=O)c3[nH]ncc23)cc(OC)c1CN1C[C@H]2C[C@@H]1CN2C(=O)CN1CCC(c2ccc(NC3CCC(=O)NC3=O)cc2)CC1` (stereo partly shown) [Compound 14], the half-maximal degradation concentration (DC50) (Table 1) was below 100 nM.
In the case of `COc1cc(-c2cn(C)c(=O)c3cnccc23)cc(Cl)c1CN1CCC(N(C)C(=O)N2CCC(c3ccc(NC4CCC(=O)NC4=O)cc3)CC2)CC1` (stereo not shown) [Compound 115], where the note is “Table 1”, the 50% degradation concentration (DC50) is below 100 nM.
Take `COc1cc(-c2cn(C)c(=O)c(C)c2C)cc(OC)c1CN1CCC(N2CCN(c3ccc(OC4CCC(=O)NC4=O)cc3F)CC2)C(F)(F)C1` (stereo not shown) [Compound 251, 3-[4-[4-[1-[[2,6-dimethoxy-4-(1,4,5-trimethyl-6-oxo-3-pyridyl)phenyl]methyl]-3,3-difluoro-4-piperidyl]piperazin-1-yl]-3-fluoro-phenoxy]piperidine-2,6-dione]: under “Table 2”, the half-maximal degradation concentration (DC50) is below 100 nM.
With `COc1cc(-c2cn(C)c(=O)c3[nH]ncc23)cc(OC)c1CN1CCN(C(=O)CN2CC(c3ccc(NC4CCC(=O)NC4=O)cc3)C2)CC1` (stereo not shown) [Compound 32], where the note is “Table 1”, the half-maximal degradation concentration (DC50) is below 100 nM.
In the case of `COc1cc(-c2cn(C)c(=O)c3ccccc23)cc(Cl)c1CN1CCC(N(C)C(=O)N2CCC(c3ccc(NC4CCC(=O)NC4=O)cc3)CC2)CC1` (stereo not shown) [Compound 121], where the note is “Table 1”, the half-maximal degradation concentration (DC50) is below 100 nM.
As to `COc1cc(-c2cn(C)c(=O)c3cnccc23)cc(Cl)c1CN1CCC(N2CCN(c3ccc(NC4CCC(=O)NC4=O)nc3)CC2)C(F)(F)C1` (stereo not shown) [Compound 194], under “Table 1”, the DC50 is below 100 nM.
Take `CC(c1ccc(-c2cn(C)c(=O)c3cnccc23)cc1OC(F)(F)F)N1CCC(C2CCN(c3ccc(NC4CCC(=O)NC4=O)cc3F)CC2)CC1` (stereo not shown) [Compound 92]: for the setting “Table 1”, the 50% degradation concentration (DC50) is below 100 nM.
Consider `COc1cc(-c2cn(C)c(=O)c3cnccc23)cc(OC)c1C(=O)N1Cc2cccc(CC3CCN(c4ccc(NC5CCC(=O)NC5=O)cc4F)CC3)c2C(F)(F)C1` (stereo not shown) [Compound 234], for which the 50% degradation concentration (DC50) (Table 1) was below 100 nM.
With `CN(C(=O)N1CCC(c2ccc(NC3CCC(=O)NC3=O)cc2F)CC1)C1CCN(C(=O)c2ccc(-c3cn(C)c(=O)c4cc(F)ccc34)cc2OC(F)(F)F)CC1` (stereo not shown) [Compound 141], where the note is “Table 1”, the half-maximal degradation concentration (DC50) is below 100 nM.
Consider `COc1cc(-c2cn(C)c(=O)c3cnccc23)cc(Cl)c1CN1CCC(N2CCN(c3ccc(NC4CCC(=O)NC4=O)cc3F)CC2)C(F)(F)C1` (single isomer, unassigned) [Compound 180, 3-[4-[4-[1-[[2-chloro-6-methoxy-4-(2-methyl-1-oxo-2,7-naphthyridin-4-yl)phenyl]methyl]-3,3-difluoro-4-piperidyl]piperazin-1-yl]-3-fluoro-anilino]piperidine-2,6-dione], for which, where the note is “Table 1”, the DC50 was below 100 nM.
Still for that read-out and setting: the result for `COc1cc(-c2cn(C)c(=O)c3[nH]ncc23)cc(OC)c1CN1CCN(C(=O)CN2CCC(c3ccc(NC4CCC(=O)NC4=O)cc3)CC2)CC1` (single isomer, unassigned) [Compound 3] reads below 100 nM.
On to `COc1cc(-c2cn(C)c(=O)c(C)c2C)cc(OC)c1CN1CCC(C2CCN(c3ccc(NC4CCC(=O)NC4=O)cc3F)CC2)C(F)(F)C1` (stereo not shown) [Compound 198], for which, under “Table 1”, the half-maximal degradation concentration (DC50) was below 100 nM.
Take `COc1cc(-c2cn(C)c(=O)c3cc(Cl)ccc23)cc(OC)c1CN1CCN(C(=O)CN2CCC(c3ccc(NC4CCC(=O)NC4=O)cc3)CC2)CC1` (stereo not shown) [Compound 29]: the DC50 (Table 1) was below 100 nM.
With `CN(C(=O)N1CCC(c2ccc(NC3CCC(=O)NC3=O)cc2)CC1)C1CCN(Cc2ccc(-c3cn(C)c(=O)c4cc(F)ccc34)cc2OC(F)(F)F)CC1(F)F` (stereo not shown) [Compound 123], the DC50 (Table 1) is below 100 nM.
Turning to `COc1cc(-c2cn(C)c(=O)c3[nH]ncc23)cc(OC)c1CN1CCN(C(=O)CN2CCC(c3c(F)cc(NC4CCC(=O)NC4=O)cc3F)CC2)CC1` (stereo not shown) [Compound 17], the DC50 (Table 1) is below 100 nM.
